This note sets out measurements from patent publication EP3124080A1, “SEMISYNTHETIC BILE ACIDS FOR INJECTION LIPOLYSIS” (Merz Pharma GmbH & Co. KGaA, priority 2015, dated 2017).

The structures appear in SMILES notation. Like-named read-outs stand apart in the source and are kept apart here. Marks after values point to notes of the source that are not given here.

Series [1] has as its system inguinal fat pad. The series can be described thus: fat histology analysis of injected inguinal fat pads (H&E). The class given is in vivo, Male Sprague-Dawley rats. Here is the method: (§1) After shaving the skin the inguinal area, rats, were injected into the inguinal fat pads (3 injection sites per fat pad for every rat, 100ul/per site). For all groups, 6 rats were injected with sterile vehicle, or obeticholic acid on day 1, day 7 and day 14 in the right pad and left fat pad was intact. For the other 6 rats were injected with sterile vehicle obeticholic acid on day 1, day 7 and day 14 in the left pad and right pad was intact.
Inguinal fat embedded in paraffin were cross-sectioned (5 µm each). For each mouse, a serial section at intervals of 40 to 50 µm was made and one section was collected for every 10 sections. In total, five sections per animal were used for Hematoxylin and eosin (H&E) stain and adipocyte number and size analysis. Histologic examination was performed by well-trained pathologists in a double-blind fashion. Three factors were examined in each sample: the quantity of normal fat, fat necrosis and inflammatory activity. […]. H&E staining was used in evaluation of the inflammatory status.

The test system of series [2] is in vitro matured adipocytes. Nature of the series: alamar blue cell viability assay (adipocytolytic potential), mature adipocytes. The class given is cell-based. To be noted: for Viability Adipocytes (%): 48h incubation, vehicle = 100%. On the procedure:
(§2) The following experimental setup was used for determination of adipocytolytic potential of test compounds with preadipocytes and mature adipocytes: • Preadipocytes (PromoCell) were seeded in Preadipocyte Growth Medium at 45000 cells/ cm^2 to allow attachment overnight. Cells were cultured at 37°C and 5% CO2 untill postconfluence. Differentiation was started with incubation of cells in Differentiation Medium for 7 days followed by incubation in Nutrition medium for 14 further days. After differentiation process, mature adipocytes were incubated with indicated concentration of indicated triterpenes.
(§3) 6 replicates of each test compound concentration were tested. Each plate included a negative control and a compound interference control (for all concentrations, duplicates).
(§4) Cell viability as surrogate for adipocytolytic potential of compounds were analysed by alamar blue assay. In brief, 20µl of a 0,1mg/ml Resazurin sodium salt (Sigma; R7017-1G) solution was added to each well 48 hrs after compound incubation. The cells were incubated for 90 min at 37°C and 5% CO2 and the resulting conversion of resazurin to resorufin was measured by a fluorescence plate reader at 590 nm. Vehicle controls were set as 100%. IC50-values were analysed using SigmaBlotV13.
(In general: Resazurin is reduced to fluorescent resorufin, in cell work by metabolically active cells.)

The test system of another series is adipocytes. The series can be described thus: Caspase-Glo 3/7 Assay, apoptosis induction in adipocytes. The class given is cell-based. The following applies: vehicle basal apoptosis = 100%. On the procedure: as §2
For analysing the potential of compounds to induce apoptosis the Caspase-Glo® 3/7 Assay was used (Promega) as recommended by the supplier. In brief, 100µl of Caspase Reagent was added to 100µl cell culture medium and cells were incubated at 37°C and 5% CO2 for 1 hr. Luminescence signal was measured with a SynergyH4 plate reader. Vehicle controls were used to define basal apoptosis as 100%. Table 1 Impact on viability of in vitro matured adipocytes after 48h incubation with indicated compound in increasing concentration

Series [3] relates to Preadipocytes (PromoCell). Nature of the series: alamar blue cell viability assay (adipocytolytic potential), preadipocytes. The class given is cell-based. To be noted: for IC50: viability, 48 hrs, read-out: IC50 [µM] Pre-ad ipocytes; for Viability Preadipocytes (%): 48h incubation, vehicle = 100%. On the procedure: as §2, §3, §4
For series [4], the system named is inguinal fat pad. The series can be described thus: injection into inguinal fat pads of rats: fat pad weight, volume, fat content. The format is in vivo, Male Sprague-Dawley rats. To be noted: 3 sites 100 µl each, days 1, 7, 14, analysis day 35, mean ±SEM. On the procedure: All work was done under sterile extractor hood/luminar airflow working environment. Final solution were filtered through sterile 0.22um Millipore PES membrane syringer filter unit. […].
To 0.4099g Na3PO4 water for injection was added to a final weight of 50 g.
For the highest (2%) concentration, 100 mg of obeticholic acid were added with 2.75 ml of above solution, 112,5 mg of glycerol and finally 2.038 ml of sterile water to make 5 ml solution. Lower concentrations were adjusted accordingly.
Male Sprague-Dawley rats (200-300g of body weight) were used for this study (Vital River Laboratories Animal Ltd., China) and were housed in a temperature (22 ± 3 °C) and humidity (55 ± 15 %) controlled AAALAC accredited facility. Animals were provided with food (Keaoxieli certified Rodent Diet) and sterile water ad libitum. The animals were on a 12-hour light/dark (6:00 am /6:00 pm) cycle and acclimated for 1 week prior to the study. Rats were housed in a plexiglas cage (3 rats per cage).
as §1
Isolated inguinal fat pad volume was measured using YLS - 7 b digit volume measuring instrument (Jinan YiYan Technology Development co., LTD, Shandong, P.R. China) according to manufacturer instructions.
Rats were euthanized and the abdomen was cut and opened. Inguinal fat pads were exposed and a photo was taken. Then inguinal fat pads were isolated, and a gross photo was taken again followed by weighting of the pad. Total fat lipids were extracted from the inguinal fat using a protocol adapted from Folch et al. Fresh fat tissue (1g) was homogenized in 20ml of a 2:1 chloroform-methanol solution. The homogenate was filtered using a fat-free filter paper and funneled into a pre-weighted 50-ml glass vial. Then the previous vial and funnel were washed with an additional 5ml of a 2:1 chloroform-methanol solution. Afterwards 2.5 ml of 0.9% NaCl was added. The lipids were separated by centrifugation at 1,800 g, 10°C for 5 min; the aqueous layer was discarded and the tube was flushed with nitrogen until the lipid pellet was dry. The tube containing the lipid pellet was reweighed, and total lipid extracted per gram of total tissue was calculated.
Results were expressed as mean ± SEM. Statistical analysis was performed using ANOVA on ranks, followed if significant by Mann-Whitney test. The difference was considered significant when p< 0.05.
. Herein, the values representmean ±SEM. *-P<0.05 vs control. Table 5 Effect of obeticholic acid on inguinal fat pad in rats.

The mark [5] stands for this setting: Adipocyte, viability, 48 hrs, read-out: IC50 [µM] Adipocytes.
[6] abbreviates: 48 h, read-out: Viability Preadipocytes (%).

Broadly, the viability is a read-out of living cells in per cent, often relative to untreated cells. On to `CC[C@H]1[C@@H](O)[C@@H]2[C@H](CC[C@]3(C)[C@@H]([C@H](C)CCC(=O)O)CC[C@@H]23)[C@@]2(C)CC[C@@H](O)C[C@@H]12` [Obeticholic acid, (3α,5β,6α,7α)-6-ethyl-3,7-dihydroxycholan-24-oic acid], for which the “inflammation (histology)” value in the series on inguinal fat pad [1] (0.5 % solution injected into inguinal fat pad) is listed as “not”; in the series on inguinal fat pad [1] (1 % solution injected into inguinal fat pad), “not”; in the series on inguinal fat pad [1] (2 % solution injected into inguinal fat pad), “increase in inflammation”. For the same molecule, the “fat necrosis as measured by histology” value with inguinal fat pad [1] (0.5, 1 and 2 % solutions) was “not affected”. For the same molecule, the “normal fat content as measured by histology” value with inguinal fat pad [1] (0.5, 1 and 2 % solutions) was “not affected”. For the same molecule, in series [2] (100 µM), the “Viability Adipocytes (%)” value is on record as 49.17%. For the same molecule, the viability at 10 µM in series [2] (Adipocyte, 48 h, read-out: Viability Adipocytes (%), 10 µM, 48h incubation, vehicle = 100%) was 101%; in series [3] (setting [6]), 93%. Also, the viability at 50 µM was 89.6% in series [2] (Adipocyte, 48 h, read-out: Viability Adipocytes (%), 50 µM, 48h incubation, vehicle = 100%) and 83.1% in series [3] (setting [6]). In addition, the viability at 100 µM is around 50% in series [2] (Adipocyte, 48 h, read-out: Viability Adipocytes (%), 100 µM, 48h incubation, vehicle = 100%) and 21.4% in series [3] (setting [6]). The viability at 300 µM in series [2] (Adipocyte, 48 h, read-out: Viability Adipocytes (%), 300 µM, 48h incubation, vehicle = 100%) is 0.29%; in series [3] (setting [6]) it was 0.41%. The results for the IC50 in series [2] (setting [5]) and in series [3] were 93.9 µM and 87.2 µM, respectively. The “Apoptosis Adipocytes (%)” value in the series on adipocytes (50 µM, 6 hrs) is recorded as 132.28%; with adipocytes (50 µM, 24 hrs), 146.44%; with adipocytes (100 µM, 6 hrs) it was 503.28%; with adipocytes (100 µM, 24 hrs), 180.88%; in the series on adipocytes (300 µM, 6 hrs), 1164.30%; in the series on adipocytes (300 µM, 24 hrs), 779.64%. Further, the “Inguinal fat pad fat content difference to contralateral (sham) pad (g) N=8” value was -0.169±0.02* g with inguinal fat pad [4] (0.5 % solution), -0.387±0.04* g in the series with inguinal fat pad [4] (1 % solution) and -0.523±0.05* g with inguinal fat pad [4] (2 % solution). In addition, the “Inguinal fat pad weight difference to contralateral (sham) pad (g) N=12” value with inguinal fat pad [4] (0.5 % solution) was -0.192±0.04* g; in the series on inguinal fat pad [4] (1 % solution), -0.352±0.03* g; with inguinal fat pad [4] (2 % solution) it was -0.526±0.07* g.

Consider `C[C@H](CCC(=O)O)[C@H]1CC[C@H]2[C@@H]3CC[C@@H]4C[C@H](O)CC[C@]4(C)[C@H]3C[C@H](O)[C@]12C` [Deoxycholic acid], for which the “Viability Adipocytes (%)” value amounted to 106.98% in series [2] (10 µM); 95.61% in series [2] (50 µM); 94.30% in series [2] (100 µM); 22.06% in series [2] (300 µM); 0.11% in series [2] (600 µM). The IC50 was found to be 200 µM in series [2] (Adipocyte, read-out: concentration required to achieve 50%-decrease in vitality of adipocytes); 244 µM in series [2] (setting [5]); 232 µM in series [3]. In addition, the “Viability Preadipocytes (%)” value in series [3] (10 µM) worked out at 96.22%; in series [3] (50 µM), 95.61%; in series [3] (100 µM), 98.03%; in series [3] (300 µM), 26.08%; in series [3] (600 µM) it was 0.00%.
